# Reference: patent US20050153899A1, “Therapeutical conversion” (priority 2003, published 2005)
# Columns and labels:
# [1] = tested on: GH or IGF-1 excess; conditions: primary or secondary therapy; cited from earlier work
# [2] = tested on: serum IGF-I; experiment: Serum IGF-I concentration (RIA) in open-label octreotide LAR to pegvisomant conversion study; format: in vivo, human
# Experimental: This open-label study included patients 18 years of age or older with a previously established diagnosis of acromegaly. […] Treatment with a dopamine agonist was discontinued 4 weeks before the baseline visit. Treatment with pegvisomant 10 mg/day subcutaneous was started at week 4 and continued through week 32. […] A more rapid dose escalation was allowed in a few patients based on the effective dose in the previous study. Vital signs and adverse events were monitored at each study visit; clinical and laboratory assessments were conducted at screening and baseline visits and regularly at 4-week intervals during the study. Laboratory assessments included serum IGF-I and GH concentrations, liver chemistry tests (alanine aminotransferase [ALT], aspartate transaminase [AST], bilirubin, and alkaline phosphatase), and routine laboratory tests (hematology, serum chemistry, and urinalysis). Assaying of serum IGF-I and GH concentrations was performed by an independent laboratory (Endocrine Sciences, Inc., Calabasas Hills, Calif.). Following separation of serum IGF-I from binding proteins by acid-ethanol extraction, serum IGF-I concentrations were determined using the IGF-I Nichols Kit (Cat. […] Serum GH concentrations were measured using a standard double antibody RIA with 125I-labeled recombinant human GH (hGH) tracer and primary rabbit anti-hGH antisera. Bound radioactive antibody-bound hGH was detected using a gamma counter. Specific radioactive hGH binding for each dilution was determined by subtracting the respective nonspecific binding, and the net radioactive hGH binding was calculated as a percentage of the total radioactive hGH added to each tube. Dilutions having a specific binding >2% were designated positive. For the primary outcome measure, exact binomial 2-sided 95% confidence intervals were constructed. All other analyses were descriptive in nature. For continuous measurements, descriptive summaries and subsequent analyses included the number of patients for which data were available, mean, median, standard deviation, and minimum/maximum values. […] The descriptive summaries for categorical or discrete measurements included the number and percentage of patients in each category. […] Secondary outcomes and safety were reported as descriptive summaries.
# [3] = tested on: patients with acromegaly; experiment: Safety monitoring in conversion study: adverse events, liver function tests, blood pressure, pulse, weight; format: in vivo, human
# Experimental: This open-label study included patients 18 years of age or older with a previously established diagnosis of acromegaly. […] Treatment with a dopamine agonist was discontinued 4 weeks before the baseline visit. Treatment with pegvisomant 10 mg/day subcutaneous was started at week 4 and continued through week 32. […] A more rapid dose escalation was allowed in a few patients based on the effective dose in the previous study. Vital signs and adverse events were monitored at each study visit; clinical and laboratory assessments were conducted at screening and baseline visits and regularly at 4-week intervals during the study. Laboratory assessments included serum IGF-I and GH concentrations, liver chemistry tests (alanine aminotransferase [ALT], aspartate transaminase [AST], bilirubin, and alkaline phosphatase), and routine laboratory tests (hematology, serum chemistry, and urinalysis). For the primary outcome measure, exact binomial 2-sided 95% confidence intervals were constructed. All other analyses were descriptive in nature. For continuous measurements, descriptive summaries and subsequent analyses included the number of patients for which data were available, mean, median, standard deviation, and minimum/maximum values. […] The descriptive summaries for categorical or discrete measurements included the number and percentage of patients in each category. […] Secondary outcomes and safety were reported as descriptive summaries.
# [4] = tested on: pituitary tumor; parameters: species or system human; conditions: in vivo
# Experimental: Magnetic resonance imaging of the pituitary was performed at baseline and at the end of the study. Pituitary tumor volumes were calculated from the images by a single evaluator. Ultrasound of the gallbladder was performed at baseline and week 32.
# [5] = tested on: patients with acromegaly; experiment: Glucose homeostasis in conversion study: HbA1c, fasting plasma glucose, insulin, OGTT; format: in vivo, human
# Experimental: Glycolated hemoglobin (HbA1c), fasting plasma glucose, and insulin concentrations were used to monitor the effects of pegvisomant on glucose homeostasis. […] Patients also underwent oral glucose tolerance testing (OGTT) to determine the glucose area under the concentration-time curve (AUC) at week 4 before initiation of pegvisomant and at week 32. Plasma glucose levels were assessed at −15, 0, 30, 60, 90, 120, 150, and 180 minutes following an oral glucose load.
# For the primary outcome measure, exact binomial 2-sided 95% confidence intervals were constructed. All other analyses were descriptive in nature. For continuous measurements, descriptive summaries and subsequent analyses included the number of patients for which data were available, mean, median, standard deviation, and minimum/maximum values. […] The descriptive summaries for categorical or discrete measurements included the number and percentage of patients in each category. Statistical significance defined as a P value of <0.05 was determined by: 1) McNemar's Chi-square test for liver function tests and the proportion of patients with IGF-I below upper limit of normal at during the study versus baseline, or 2) the signed rank test for all other comparisons. Secondary outcomes and safety were reported as descriptive summaries.
# [6] = tested on: patients with acromegaly; experiment: Signs and symptoms of acromegaly, overall health status, ring size; format: in vivo, human; conditions: after conversion from octreotide LAR
# Experimental: Signs and symptoms of acromegaly and overall health status were assessed by use of questionnaire that patients completed. Disease signs and symptoms were scored using an […] (0=absent to 8=severe, incapacitating); overall health status was scored using a 10-point scale (0=worst possible to 10=best possible). Additionally, change in ring size of the fourth digit of the right hand (fifth digit if the fourth was too large) was measured using a jeweler's ring sizing system (plastic) over the course of the study.
# [7] = patients with normal IGF-I at baseline (n=13)
molecule,measurement,setting,value
C[C@@H](O)[C@@H]1NC(=O)[C@H](CCCCN)NC(=O)[C@@H](Cc2c[nH]c3ccccc23)NC(=O)[C@H](Cc2ccccc2)NC(=O)[C@@H](NC(=O)[C@H](N)Cc2ccccc2)CSSC[C@@H](C(=O)N[C@H](CO)[C@@H](C)O)NC1=O [Octreotide],patients in whom GH or IGF-1 excess is controlled,[1],50-60%
pegvisomant,cumulative percentage of patients achieving at least one IGF-I concentration within normal age-related range,[2]; any time during the study,85%
same,change in IGF-I concentrations,[2]; patients with baseline IGF-I above age-adjusted reference range,significantly reduced
same,change in IGF-I concentrations,[2]; patients with normal IGF-I levels at baseline,not significantly changed
same,serum IGF-I concentration,"[2]; week 32, all patients",292 ng/mL
same,patients with normalized IGF-I concentrations,"[2]; week 32, 38 of 49 patients",77.6%
same,"clinically relevant changes in serum ALT, ASP or bilirubin in patients with normal liver function at baseline",[3]; in vivo,No patient
same,elevations in blood pressure or pulse,[3]; in vivo,No significant or clinically relevant elevations
same,mean diastolic blood pressure,[3]; in vivo,76 mm Hg
same,mean systolic blood pressure,[3]; in vivo,126 mm Hg
same,patients reporting at least 1 adverse event,[3]; in vivo,26.4%
same,patients with abnormal liver function tests (≧3 times ULN),[3]; in vivo,No patients had abnormal liver function tests
same,patients with treatment-related constipation,[3]; in vivo,3.8%
same,patients with treatment-related injection-site reaction,[3]; in vivo,3.8%
same,serious treatment-related adverse events,[3]; in vivo,No serious treatment-related adverse events
same,patients with anomalous spikes in ALT levels,[3]; week 20 to week 24,5.7%
same,"pituitary volume, mean change",[4],0.06 cm3
same,"pituitary volume, median change",[4],0 cm3
same,"pituitary volume, range of change",[4],−0.73 to 1.1 cm3
same,change in median HbA1c,"[5]; all patients, 32-week study",significant decrease
same,decrease in fasting plasma glucose,[5]; [7],1.7 mmol/L
same,decrease in median HbA1c,[5]; [7],0.2%
same,peak insulin concentration,[5]; week 12,90 pmol/L
same,glucose AUC during 2-hour OGTT,[5]; week 32,1280 mmol·min/L
same,insulin/glucose ratio,[5]; week 32,13.6
same,median fasting glucose,[5]; week 32,4.7 mmol/L
same,median insulin concentration,[5]; week 32,69 pmol/L
same,"mean overall signs-and-symptoms scores, overall health status, measures of ring size",[6],improved
